The text below walks through data of patent US20170008888A1 (KYORIN PHARMACEUTICAL CO., LTD., priority 2014, published 2017).

Holding throughout (assay type): binding
One experiment concerns the target T1, ACK (Homo sapiens, UniProt Q07912).
T1 construct: screened for activity against several kinases in Jurkat cells; endogenous in cells; host or cells: Jurkat cell lysate
Kind of experiment: Probe-based (AX9989) kinase profiling in Jurkat lysate: ACK. The method in brief:
(§1)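 Percent inhibition was derived from reduced LC/MS fragment intensities of probe-labeled peptides relative to compound-free controls. Before labeling with 5 μM AX9989, Mn2+-supplemented (20 mM) Jurkat lysate was exposed to compound for 15 min at room temperature.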

The next experiment addresses T2, JAK1 (Homo sapiens, UniProt P23458).
T2 construct: screened for activity against several kinases in Jurkat cells; endogenous in cells; host or cells: Jurkat cell lysate
Briefly: Probe-based (AX9989) kinase profiling in Jurkat lysate: JAK1. The method in brief: as §1

The subject of the next experiment is AurB or AurC. Briefly: Probe-based (AX9989) kinase profiling in Jurkat lysate: AurB or AurC. The method in brief:
as §1

The next experiment relates to AMPKa1 or AMPKa2. Kind of experiment: Probe-based (AX9989) kinase profiling in Jurkat lysate: AMPKa1 or AMPKa2. The method in brief: as §1
Another experiment deals with T3, AurA (Homo sapiens, UniProt O14965).
T3 construct: screened for activity against several kinases in Jurkat cells; endogenous in cells; host or cells: Jurkat cell lysate
T3 sequence (O14965 1-403): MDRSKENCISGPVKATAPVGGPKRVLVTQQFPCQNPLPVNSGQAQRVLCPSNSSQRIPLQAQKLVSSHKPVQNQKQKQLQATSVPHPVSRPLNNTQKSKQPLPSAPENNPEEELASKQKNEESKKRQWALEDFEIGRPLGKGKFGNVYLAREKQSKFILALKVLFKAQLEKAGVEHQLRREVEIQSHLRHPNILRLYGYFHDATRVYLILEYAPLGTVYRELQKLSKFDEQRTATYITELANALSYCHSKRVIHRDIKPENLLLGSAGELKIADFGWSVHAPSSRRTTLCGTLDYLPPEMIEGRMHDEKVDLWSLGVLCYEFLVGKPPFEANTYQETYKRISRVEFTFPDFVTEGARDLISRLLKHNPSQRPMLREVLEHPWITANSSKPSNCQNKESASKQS
Kind of experiment: Probe-based (AX9989) kinase profiling in Jurkat lysate: AurA. Summed up:
as §1

Another experiment deals with T4, TAO2 (Homo sapiens, UniProt Q9UL54).
T4 construct: screened for activity against several kinases in Jurkat cells; endogenous in cells; host or cells: Jurkat cell lysate
T4 sequence (Q9UL54 1-1235): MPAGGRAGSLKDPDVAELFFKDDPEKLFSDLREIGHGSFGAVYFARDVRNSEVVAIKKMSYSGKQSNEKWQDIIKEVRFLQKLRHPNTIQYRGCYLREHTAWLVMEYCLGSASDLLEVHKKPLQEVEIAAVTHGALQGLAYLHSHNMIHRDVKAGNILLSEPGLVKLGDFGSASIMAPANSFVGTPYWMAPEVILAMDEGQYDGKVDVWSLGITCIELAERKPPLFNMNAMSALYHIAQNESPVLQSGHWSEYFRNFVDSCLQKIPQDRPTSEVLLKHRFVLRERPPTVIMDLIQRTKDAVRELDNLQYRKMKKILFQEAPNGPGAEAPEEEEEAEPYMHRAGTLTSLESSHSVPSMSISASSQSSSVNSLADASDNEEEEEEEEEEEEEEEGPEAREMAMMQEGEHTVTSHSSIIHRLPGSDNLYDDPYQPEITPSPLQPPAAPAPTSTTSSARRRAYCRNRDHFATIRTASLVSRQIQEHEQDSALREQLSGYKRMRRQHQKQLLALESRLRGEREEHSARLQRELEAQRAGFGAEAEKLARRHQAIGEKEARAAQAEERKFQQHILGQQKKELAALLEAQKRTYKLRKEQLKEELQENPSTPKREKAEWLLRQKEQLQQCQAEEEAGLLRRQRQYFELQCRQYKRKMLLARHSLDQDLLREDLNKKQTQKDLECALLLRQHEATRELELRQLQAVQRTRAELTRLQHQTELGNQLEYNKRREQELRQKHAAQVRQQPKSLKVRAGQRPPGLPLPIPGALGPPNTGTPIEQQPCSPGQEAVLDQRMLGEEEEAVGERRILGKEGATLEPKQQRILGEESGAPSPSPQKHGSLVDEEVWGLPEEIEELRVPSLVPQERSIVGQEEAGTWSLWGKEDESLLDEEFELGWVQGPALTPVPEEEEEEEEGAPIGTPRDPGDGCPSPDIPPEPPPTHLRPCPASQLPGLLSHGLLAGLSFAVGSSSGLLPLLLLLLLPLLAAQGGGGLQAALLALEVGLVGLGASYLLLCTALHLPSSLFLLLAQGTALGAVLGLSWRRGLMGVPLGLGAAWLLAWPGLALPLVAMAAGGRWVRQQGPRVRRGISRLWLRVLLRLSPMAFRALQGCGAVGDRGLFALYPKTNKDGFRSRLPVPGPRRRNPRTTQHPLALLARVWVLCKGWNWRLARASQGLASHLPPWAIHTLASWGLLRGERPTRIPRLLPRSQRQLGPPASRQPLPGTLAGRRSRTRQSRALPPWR
Kind of experiment: Probe-based (AX9989) kinase profiling in Jurkat lysate: TAO2. Summed up:
as §1

For experiment [1], the target named is T5, BRD4 bromodomain domain I [BRD4(1)] (Homo sapiens, UniProt O60885).
T5 construct: BRD4 bromodomain domain I [BRD4(1)]; purchased Cayman Chemicals
Kind of experiment: BRD4 bromodomain domain 1 inhibition assay (TR-FRET). The settings on record: screening concentration 10 μM. How it is done: The inhibitory activity of test compounds on the bromodomain, BRD4 bromodomain domain I [BRD4(1)], were determined via TR-FRET after a slight modification of the manufacturer's protocol (Cayman Chemicals, Ann Arbor, Mich.). Briefly, compounds were diluted to a 20× ([…]) concentration in DMSO. 100 nL of 20× compounds were then dry stamped into triplicate wells of black, low volume 384 well plates (Aurora Biotechnologies, Carlsbad, Calif.) using the Mosquito liquid handler (TPP Labtech, Melbourn, UK). 20× compounds were then diluted to a 4× (40 μM) concentration in Assay Buffer to result in 2% DMSO content. […] JQ1 at 10 μM or 0.5% DMSO final concentrations were used as the positive and negative controls, respectively, to set the assay window. The fluorescence was read in a time-resolved format on the Biotec Synergy 2 plate reader by exciting the signal at 340 nm and reading emissions at 620 and 670, using a 100 μs delay and 200 μs read window. […] Briefly, TR-FRET ratio values were normalized to the average TR-FRET ratio value given by 10 μM JQ1. […]
A general note: Time-resolved FRET reads energy transfer from a long-lived donor to a nearby acceptor.

Another experiment concerns the target T6, ERK5 (Homo sapiens, UniProt Q13164).
T6 construct: screened for activity against several kinases in Jurkat cells; endogenous in cells; host or cells: Jurkat cell lysate
Briefly: Probe-based (AX9989 acyl phosphate ATP probe) kinase profiling in Jurkat lysate: ERK5. The settings on record: for IC50: Jurkat lysate. The method in brief: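 ERK5 IC50 values came from percent inhibition at the screening concentration, measured as loss of LC/MS signal of probe-labelled active-site peptides. Compound was added for 15 min at room temperature to Jurkat lysate (5 mg/ml, 20 mM MnCl2) before labelling with AX9989 ATP acyl phosphate probe at 5 μM.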

The subject of another experiment is ABL or ARG. Kind of experiment: Probe-based (AX9989) kinase profiling in Jurkat lysate: ABL or ARG. The method in brief:
as §1

[2] abbreviates: calculated from percent inhibition of AX9989 labeling and the screening concentration.

Like-named read-outs stand apart in the source and are kept apart here.

T2 sequence (P23458 whole entry): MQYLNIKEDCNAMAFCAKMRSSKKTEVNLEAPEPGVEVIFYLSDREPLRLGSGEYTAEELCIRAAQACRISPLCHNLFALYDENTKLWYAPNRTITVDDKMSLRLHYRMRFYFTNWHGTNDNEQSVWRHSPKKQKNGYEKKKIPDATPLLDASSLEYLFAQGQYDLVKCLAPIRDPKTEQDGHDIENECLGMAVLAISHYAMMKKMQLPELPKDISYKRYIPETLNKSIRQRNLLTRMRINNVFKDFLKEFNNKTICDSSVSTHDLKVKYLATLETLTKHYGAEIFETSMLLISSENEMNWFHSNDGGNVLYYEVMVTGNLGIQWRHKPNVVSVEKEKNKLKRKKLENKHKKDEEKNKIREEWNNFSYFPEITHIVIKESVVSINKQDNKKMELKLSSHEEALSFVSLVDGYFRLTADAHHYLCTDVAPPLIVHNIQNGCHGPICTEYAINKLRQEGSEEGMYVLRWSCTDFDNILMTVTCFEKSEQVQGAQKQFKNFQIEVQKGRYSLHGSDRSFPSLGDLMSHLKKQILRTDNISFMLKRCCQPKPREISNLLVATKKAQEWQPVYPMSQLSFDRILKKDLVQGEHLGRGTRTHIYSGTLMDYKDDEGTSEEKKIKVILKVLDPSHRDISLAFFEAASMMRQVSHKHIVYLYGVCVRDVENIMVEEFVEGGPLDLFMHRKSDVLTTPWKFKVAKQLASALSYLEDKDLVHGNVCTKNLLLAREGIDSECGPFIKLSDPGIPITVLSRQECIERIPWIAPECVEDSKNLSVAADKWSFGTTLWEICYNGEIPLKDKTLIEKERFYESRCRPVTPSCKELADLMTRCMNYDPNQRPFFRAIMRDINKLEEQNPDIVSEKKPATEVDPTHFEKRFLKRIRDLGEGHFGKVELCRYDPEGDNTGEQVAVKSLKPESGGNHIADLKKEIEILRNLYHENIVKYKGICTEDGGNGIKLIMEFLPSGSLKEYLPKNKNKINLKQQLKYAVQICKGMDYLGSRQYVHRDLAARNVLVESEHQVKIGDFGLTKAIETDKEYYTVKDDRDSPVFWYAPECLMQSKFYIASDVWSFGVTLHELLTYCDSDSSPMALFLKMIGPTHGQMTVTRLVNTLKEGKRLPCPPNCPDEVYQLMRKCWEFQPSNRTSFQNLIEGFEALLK
T1 sequence (Q07912 whole entry): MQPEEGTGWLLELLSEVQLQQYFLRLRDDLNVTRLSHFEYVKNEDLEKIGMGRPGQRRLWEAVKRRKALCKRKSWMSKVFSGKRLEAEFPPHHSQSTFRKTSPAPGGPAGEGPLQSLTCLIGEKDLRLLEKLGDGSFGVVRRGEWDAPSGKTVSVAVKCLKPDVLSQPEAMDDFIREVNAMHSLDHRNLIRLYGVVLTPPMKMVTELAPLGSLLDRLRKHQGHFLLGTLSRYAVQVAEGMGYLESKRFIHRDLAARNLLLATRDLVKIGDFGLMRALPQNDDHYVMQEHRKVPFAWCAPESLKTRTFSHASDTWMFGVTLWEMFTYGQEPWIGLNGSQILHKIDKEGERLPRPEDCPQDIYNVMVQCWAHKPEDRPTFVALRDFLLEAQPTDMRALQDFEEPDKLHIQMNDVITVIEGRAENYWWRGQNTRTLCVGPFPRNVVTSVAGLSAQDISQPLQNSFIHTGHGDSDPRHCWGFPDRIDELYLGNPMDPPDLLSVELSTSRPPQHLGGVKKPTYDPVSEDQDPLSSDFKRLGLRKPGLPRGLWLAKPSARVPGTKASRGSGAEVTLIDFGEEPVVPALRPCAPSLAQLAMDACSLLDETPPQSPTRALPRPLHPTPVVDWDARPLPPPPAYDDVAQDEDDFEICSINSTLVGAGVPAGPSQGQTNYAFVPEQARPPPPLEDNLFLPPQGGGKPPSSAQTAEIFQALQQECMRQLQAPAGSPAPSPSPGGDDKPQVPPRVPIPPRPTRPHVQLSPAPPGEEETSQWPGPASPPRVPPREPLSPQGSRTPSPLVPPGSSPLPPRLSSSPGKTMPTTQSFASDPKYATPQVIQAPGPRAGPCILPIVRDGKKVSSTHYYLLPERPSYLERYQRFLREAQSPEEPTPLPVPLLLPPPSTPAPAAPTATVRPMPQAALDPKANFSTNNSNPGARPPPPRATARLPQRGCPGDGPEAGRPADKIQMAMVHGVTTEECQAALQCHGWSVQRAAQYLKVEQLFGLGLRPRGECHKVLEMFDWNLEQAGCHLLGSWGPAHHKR
T6 sequence (Q13164 whole entry): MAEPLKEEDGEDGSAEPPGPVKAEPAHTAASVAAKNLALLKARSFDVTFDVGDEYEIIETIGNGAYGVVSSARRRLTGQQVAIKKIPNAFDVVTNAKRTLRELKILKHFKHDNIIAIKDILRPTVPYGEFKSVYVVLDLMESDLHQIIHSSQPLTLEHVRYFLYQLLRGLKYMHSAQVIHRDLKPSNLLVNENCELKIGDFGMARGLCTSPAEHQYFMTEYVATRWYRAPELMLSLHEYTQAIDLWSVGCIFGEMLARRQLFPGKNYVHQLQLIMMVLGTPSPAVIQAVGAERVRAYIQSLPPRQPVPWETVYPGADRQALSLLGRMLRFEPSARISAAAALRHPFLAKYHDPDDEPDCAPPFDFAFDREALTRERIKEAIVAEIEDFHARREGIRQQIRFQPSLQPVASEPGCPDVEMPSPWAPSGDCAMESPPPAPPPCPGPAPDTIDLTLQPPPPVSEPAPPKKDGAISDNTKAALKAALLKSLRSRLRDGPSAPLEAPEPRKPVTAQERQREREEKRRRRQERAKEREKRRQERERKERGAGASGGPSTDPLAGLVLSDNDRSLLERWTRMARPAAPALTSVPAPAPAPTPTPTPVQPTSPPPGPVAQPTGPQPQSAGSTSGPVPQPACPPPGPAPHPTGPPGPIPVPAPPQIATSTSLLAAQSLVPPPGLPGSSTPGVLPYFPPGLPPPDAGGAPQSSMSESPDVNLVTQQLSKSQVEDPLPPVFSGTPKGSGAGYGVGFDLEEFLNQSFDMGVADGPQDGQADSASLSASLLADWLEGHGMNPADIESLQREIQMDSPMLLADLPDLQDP

The term IC50 denotes the concentration at which inhibition is half-maximal. `CCOc1cc(C(=O)NC2CCC(O)CC2)ccc1Nc1cc2c(cn1)N(C)C(=O)c1ccccc1N2C` (stereo not drawn) [Compound 109]: the inhibition at 1 µM at ACK (screening concentration 1.0 μM, read-out: Kinase inhibition % at indicated screening concentration: ACK) was at most 35%; at JAK1 (screening concentration 1.0 μM, read-out: Kinase inhibition % at indicated screening concentration: JAK1), at most 35%; on AurA (screening concentration 1.0 μM, read-out: Kinase inhibition % at indicated screening concentration: AurA), at most 35%; on TAO2 (screening concentration 1.0 μM, read-out: Kinase inhibition % at indicated screening concentration: TAO2), at most 35%; on ERK5 (screening concentration 1.0 μM, read-out: Kinase inhibition % at indicated screening concentration: ERK5), 35 to 50%. Further, the “Kinase inhibition % at indicated screening concentration: AurB or AurC” value with AurB or AurC (screening concentration 1.0 μM) is on record as “E (E is ≦35%)”. For the same molecule, the “Kinase inhibition % at indicated screening concentration: AMPKa1 or AMPKa2” value in the experiment on AMPKa1 or AMPKa2 (screening concentration 1.0 μM) was “E (E is ≦35%)”. The inhibition at 10 µM in experiment [1] is below 70%. In addition, the IC50 at ERK5 (setting [2]) is above 500 nM. In the experiment with ABL or ARG (screening concentration 1.0 μM), the “Kinase inhibition % at indicated screening concentration: ABL or ARG” value is “E (E is ≦35%)”.
For `CCOc1cc(C(=O)N2CCCC(N)C2)ccc1Nc1cc2c(cn1)N(C)C(=O)c1occc1N2C` (stereo not drawn) [Compound 113], the inhibition at 0.1 µM at ACK (screening concentration 0.1 μM, read-out: Kinase inhibition % at indicated screening concentration: ACK) was at most 35%; on JAK1 (screening concentration 0.1 μM, read-out: Kinase inhibition % at indicated screening concentration: JAK1), at most 35%; on AurA (screening concentration 0.1 μM, read-out: Kinase inhibition % at indicated screening concentration: AurA), at most 35%; on TAO2 (screening concentration 0.1 μM, read-out: Kinase inhibition % at indicated screening concentration: TAO2), at most 35%; at ERK5 (screening concentration 0.1 μM, read-out: Kinase inhibition % at indicated screening concentration: ERK5), above 90%. Besides, in the experiment on AurB or AurC (screening concentration 0.1 μM), the “Kinase inhibition % at indicated screening concentration: AurB or AurC” value is on record as “E (E is ≦35%)”. Moreover, the “Kinase inhibition % at indicated screening concentration: AMPKa1 or AMPKa2” value in the experiment on AMPKa1 or AMPKa2 (screening concentration 0.1 μM) is “E (E is ≦35%)”. Besides, in experiment [1], the inhibition at 10 µM is above 85%. In addition, the IC50 at ERK5 (setting [2]) was at most 50 nM. The “Kinase inhibition % at indicated screening concentration: ABL or ARG” value in the experiment on ABL or ARG (screening concentration 0.1 μM) was “E (E is ≦35%)”.
As to `CCOc1cc(C(=O)N2CCOCC2)ccc1Nc1cc2c(cn1)N(C)C(=O)c1ccccc1O2` [Compound T81, 3-((2-ethoxy-4-(morpholine-4-carbonyl)phenyl)amino)-11-methylbenzo[f]pyrido[4,3-b][1,4]oxazepin-10(11H)-one], the inhibition at 1 µM was at most 35% on ACK (screening concentration 1 μM, read-out: ACK Inhibition % at indicated screening concentration); at most 35% on JAK1 (screening concentration 1 μM, read-out: JAK1 Inhibition % at indicated screening concentration); at most 35% on AurA (screening concentration 1 μM, read-out: AurA Inhibition % at indicated screening concentration); at most 35% on TAO2 (screening concentration 1 μM, read-out: TAO2 Inhibition % at indicated screening concentration); 75 to 90% at ERK5 (screening concentration 1 μM, read-out: ERK5 Inhibition % at indicated screening concentration). For the same molecule, in the experiment with AurB or AurC (screening concentration 1 μM), the “AurB or AurC Inhibition % at indicated screening concentration” value was “E (E is ≦35%)”. In the experiment on AMPKa1 or AMPKa2 (screening concentration 1 μM), the “AMPKa1 or AMPKa2 Inhibition % at indicated screening concentration” value was “E (E is ≦35%)”. In addition, the inhibition at 10 µM in experiment [1] is below 70%. On ERK5 (calculated from percent inhibition and screening concentration, AX9989 probe), the IC50 is 101 to 500 nM. Moreover, in the experiment on ABL or ARG (screening concentration 1 μM), the “ABL or ARG Inhibition % at indicated screening concentration” value is “E (E is ≦35%)”.
